System: DT40 cells stably expressing mutated PLCγ2 (L845F)
Experiment: Calcium flux assay in DT40 cells after anti-IgM stimulation
Type: cell-based, chicken
Conditions: L845F PLCγ2 mutant DT40 cells, 1 μM Ibrutinib 30 min
Method: The intracellular calcium level was detected by Calcium Assay Kit (BD Biosciences, San Diego, Calif.) and measured by Beckman Coulter DTX880 microplate reader. After 195 seconds of acquisition to determine the baseline, 3 μg/ml anti-chicken IgM (SouthernBiotech, Birmingham, Ala.) was added to stimulate the cells.
WT PLCγ2 and L845F PLCγ2 were stably transfected into 293 cells and DT40 cells which lack endogenous PLCγ2 expression (FIG. 5). Calcium flux was examined in DT40 cells after anti-IgM stimulation in the presence of WT or mutant PLCγ2.

## C=CC(=O)N1CCC[C@@H](n2nc(-c3ccc(Oc4ccccc4)cc3)c3c(N)ncnc32)C1 [ibrutinib]
  inhibition of IgM-mediated calcium flux: not inhibited
